Peptide text beside a SMILES is read from it. * marks the point of attachment. Dansyl = CN(C)c1cccc2c(S(=O)(=O)*)cccc12
Experiments:
[1] = tested on: P100 membrane fractions derived from Caco-2 cells; assay: Dansylated peptide ELISA on P100: PAX2 and HAX42 peptides relative binding; conditions: ratio to ZElan021 (HAX42 = 1.00)
[2] = tested on: P100 membrane fractions derived from Caco-2 cells; assay: as above; conditions: PAX2 peptides, ratio to ZElan021 (HAX42 = 1.00); for Binding value at 20 μg/ml: first 20 μg/ml column
Experimental: (§1) The peptides and proteins were analyzed by a dansylated peptide ELISA method in which 96 well plates were coated overnight at 4° C. with 100 μl/well coating protein (normally 100 μg/ml P100 membrane fraction) in 0.05M carbonate buffer pH9.6. Nonspecific binding was blocked using 200 μl/well, 2% Marvel/PBS for 2 hours at 37° C. prior to incubation with dansylated peptides. The plates were washed three times with PBS/0.05% Tween 20 and after each subsequent incubation step. […] A buffer blank control was included to ensure that background binding to plastic was not due to the antibodies used in the assay system. […] The plates were then incubated with an anti-mouse λ-HRP conjugated antibody (Southern Biotech 1060-05) at a 1:10,000 dilution in blocking solution, 100 μl/well for 1 hour at room temperature. Plates were developed using 75 μl/well Bionostics TMB substrate and incubated for approximately 10 minutes. The developing reaction was stopped using Bionostics Red Stop solution (25 μl/well), and the optical density of the plates was read at 650 nm.

[3] = Experimental: In particular, phages selected in vitro to each receptor or binding site located in the GIT were amplified in E. coli, PEG-precipitated, resuspended in TBS and the titer of each phage sample was determined by plaquing in E. coli as described above. […] Using the in situ loop model described above, 0.5 ml of preselected phage library solution was injected into the tied-off portion of the duodenum/jejunum. Blood was collected into heparinized tubes from the portal vein at 0, 15, 30, 45 and 60 minutes. A blood sample was taken from the systemic circulation at the end of the experiment. Similarly, the portion of the duodenum/jejunum used for phage injection was taken at the end of the experiment.
Thirty microliters of the collected portal blood (neat and 10^−2, 10^−4, 10^−6 dilutions) was added to 30 μl E. coli K91Kan cells (overnight culture) and incubated at 37° C. for 10 min. Subsequently, 3 ml of top agarose was added and the samples were plated for plaques. One hundred microliters of the collected portal blood was added to 100 μl of E. coli K91Kan. Five milliliters of LB medium was then added and the samples were incubated at 37° C. overnight in a rotating microbial incubator. The E. coli was removed by centrifugation and the amplified phage supernatant samples were either titered directly or were PEG-precipitated, resuspended in TBS and titered. Following titration of the amplified phage, samples containing phage from each set of animals were combined, adjusting the titer of each sample to the same titer, and were plated for plaques on LB agar plates (22 cm^2 square plates). Either 12,000 or 24,000 phage were plated for plaques.
Thirty microliters of the collected systemic blood (neat and 10^−2, 10^−4, 10^−6 dilutions) was added to E. coli K91Kan cells, incubated at 37° C. for 10 min. Three ml of top agarose was then added and the samples were plated for plaques. One hundred microliters of the collected systemic blood was added to 100 μl of E. coli K91Kan, incubated at 37° C. for 10 min. Five milliliters of LB medium was then added and the samples were incubated at 37° C. overnight in a rotating microbial incubator. The E. coli was removed by centrifugation and the amplified phage supernatant samples were either titered directly or were PEG-precipitated, resuspended in TBS and titered. Following titration of the amplified phage, samples containing phage from each set of animals were combined, adjusting the titer of each sample to the same titer, and were plated for plaques on LB agar plates (22 cm^2 square plates). Either 12,000 or 24,000 phage were plated for plaques. The intestinal tissue portion used in each closed loop was excised. […] Alternatively, the tissue (in PBS supplemented with protease inhibitors) was homogenized in an Ultra Thorex homogenizer, washed 3 times in PBS containing protease inhibitors and resuspended in PBS containing protease inhibitors (Int-G samples). In each case, serial dilutions (neat and 10^−2, 10^−4, 10^−6 dilutions) of the tissue homogenate was titered in E. coli.
The phage amplified from the portal blood, systemic blood and intestinal tissue was plated for plaques. […] The filters were air-dried, and the DNA was cross-linked to the filter (UV crosslinking: 2 min, high setting). The filters were incubated in pre-hybridization buffer (6×SSC, 5×Denhardt's solution, 0.1% SDS, 20 μg/ml yeast tRNA) at 40° C.-45° C. for at least 60 min.
Synthetic oligonucleotides, (22-mers), complimentary to regions coding for the receptor or binding sites used to create the preselected phage library, were synthesized (see Table 14 below).
The oligonucleotides (5 pmol) were 5′ end labelled with ^32P-ATP and T4 polynucleotide kinase and approximately 2.5 pmol of labelled oligonucleotide was used in hybridization studies. […] The filters were air-dried and exposed for autoradiography for 15 hours, 24 hours or 72 hours.
Hybridization data for pools from each receptor group of rats was compiled.

[4] = Drug potency, peptide loading and size of coacervated particles; type: physicochemical; conditions: formulation 1 particles (coacervation), blend
[5] = tested on: P100 membrane fraction derived from Caco-2 cells; assay: GST-PAX2 peptides relative binding to P100 fractions; conditions: 20 μg/ml; binding to plastic subtracted; GST-HAX42 = 1.00
Experimental: as §1
After subtraction of the GST-peptide binding to plastic from P100 binding values, the binding of GST-PAX2 peptides were represented as a ratio of GST-HAX42 binding to P100, which was given the arbitrary value of 1.00. The following ratios were determined from binding to P100 of GST-peptides at a peptide concentration of 20 μg/ml. Bold denotes positive binding to the P100 membrane fraction.

[6] = tested on: fixed Caco-2 or C2BBe1 cells; assay: ELISA of GST fusion proteins on fixed Caco-2 or C2BBe1 cells; type: binding; conditions: Caco-2
Experimental: Fixed Caco-2, C2BBe1, and A431 cell plates were prepared by growing cells on tissue culture treated microtiter plates. When cells were confluent, plates were fixed with 10% formaldehyde, washed twice with PBS and stored with 0.5% BSA-PBS at −20° C. […] The standard ELISA procedure was followed at this point.
The standard ELISA procedure was modified as follows. GST proteins were diluted to an appropriate concentration in PBS containing 1% BSA and 0.05% Tween20 (1% BPT), titered and incubated one hour at room temperature. Following five washes an anti-GST monoclonal antibody was added (Sigma, St. Louis Clone GST-2 diluted 1:10,000 in 1% BPT) and incubated one hour. After five more washes goat anti-mouse IgG2b-HRP was added (Southern Biotechnology Associates Inc., Birmingham, Ala., diluted 1:4000 in 1% BPT) and incubated one hour. After five washes plates were developed with TMB peroxidase substrate (Kirkegard and Perry, Gaithersburg, Md.). All data is presented with background binding subtracted.

## CC(C)C[C@H](NC(=O)[C@H](CCCNC(=N)N)NC(=O)[C@H](CCCNC(=N)N)NC(=O)[C@H](CC(N)=O)NC(=O)[C@H](Cc1c[nH]cn1)NC(=O)[C@H](CO)NC(=O)[C@H](C)NC(=O)[C@@H](N)CCCCNS(=O)(=O)c1cccc2c(N(C)C)cccc12)C(=O)N[C@@H](CCCNC(=N)N)C(=O)N[C@H](C(=O)N[C@@H](CCCNC(=N)N)C(N)=O)[C@@H](C)O [ZElan073] (H-K(Dansyl)ASHNRRLRTR-NH2)
[1]
  Binding value at 50 μg/ml (Jackson Ab): 0.66
[2]
  Binding value at 50 μg/ml (Southern Ab): 0.49
  Binding value at 20 μg/ml: 0.07
[2]; first 50 μg/ml column
  Binding value at 50 μg/ml: −0.11
[2]; second 50 μg/ml column
  Binding value at 50 μg/ml: 0.49

## CC(C)C[C@H](NC(=O)[C@H](CCCNC(=N)N)NC(=O)[C@H](CCCNC(=N)N)NC(=O)[C@H](CC(N)=O)NC(=O)[C@H](Cc1c[nH]cn1)NC(=O)[C@H](C)NC(=O)[C@H](CO)NC(=O)[C@@H](N)CCCCNS(=O)(=O)c1cccc2c(N(C)C)cccc12)C(=O)N[C@@H](CCCNC(=N)N)C(=O)N[C@H](C(=O)N[C@@H](CCCNC(=N)N)C(N)=O)[C@@H](C)O [ZElan074] (H-K(Dansyl)SAHNRRLRTR-NH2)
[1]
  Binding value at 50 μg/ml (Jackson Ab): 0.71
[2]
  Binding value at 50 μg/ml (Southern Ab): 0.48
  Binding value at 20 μg/ml: 0.06
[2]; first 50 μg/ml column
  Binding value at 50 μg/ml: 0.82
[2]; second 50 μg/ml column
  Binding value at 50 μg/ml: 0.52

## CC(C)C[C@H](NC(=O)[C@H](CCCNC(=N)N)NC(=O)[C@H](CCCNC(=N)N)NC(=O)[C@H](CC(N)=O)NC(=O)[C@H](C)NC(=O)[C@H](CO)NC(=O)[C@H](CO)NC(=O)[C@@H](N)CCCCNS(=O)(=O)c1cccc2c(N(C)C)cccc12)C(=O)N[C@@H](CCCNC(=N)N)C(=O)N[C@H](C(=O)N[C@@H](CCCNC(=N)N)C(N)=O)[C@@H](C)O [ZElan075] (H-K(Dansyl)SSANRRLRTR-NH2)
[1]
  Binding value at 50 μg/ml (Jackson Ab): 0.47
[2]
  Binding value at 50 μg/ml (Southern Ab): 0.32
  Binding value at 20 μg/ml: 0.13
[2]; first 50 μg/ml column
  Binding value at 50 μg/ml: 0.52
[2]; second 50 μg/ml column
  Binding value at 50 μg/ml: 0.38

## CC(C)C[C@H](NC(=O)[C@H](CCCNC(=N)N)NC(=O)[C@H](CCCNC(=N)N)NC(=O)[C@H](C)NC(=O)[C@H](Cc1c[nH]cn1)NC(=O)[C@H](CO)NC(=O)[C@H](CO)NC(=O)[C@@H](N)CCCCNS(=O)(=O)c1cccc2c(N(C)C)cccc12)C(=O)N[C@@H](CCCNC(=N)N)C(=O)N[C@H](C(=O)N[C@@H](CCCNC(=N)N)C(N)=O)[C@@H](C)O [ZElan076] (H-K(Dansyl)SSHARRLRTR-NH2)
[1]
  Binding value at 50 μg/ml (Jackson Ab): 0.60
[2]
  Binding value at 50 μg/ml (Southern Ab): 0.42
  Binding value at 20 μg/ml: 0.08
[2]; first 50 μg/ml column
  Binding value at 50 μg/ml: 1.00
[2]; second 50 μg/ml column
  Binding value at 50 μg/ml: 0.41

## CC(C)C[C@H](NC(=O)[C@H](CCCNC(=N)N)NC(=O)[C@H](C)NC(=O)[C@H](CC(N)=O)NC(=O)[C@H](Cc1c[nH]cn1)NC(=O)[C@H](CO)NC(=O)[C@H](CO)NC(=O)[C@@H](N)CCCCNS(=O)(=O)c1cccc2c(N(C)C)cccc12)C(=O)N[C@@H](CCCNC(=N)N)C(=O)N[C@H](C(=O)N[C@@H](CCCNC(=N)N)C(N)=O)[C@@H](C)O [ZElan077] (H-K(Dansyl)SSHNARLRTR-NH2)
[1]
  Binding value at 50 μg/ml (Jackson Ab): 0.73
[2]
  Binding value at 50 μg/ml (Southern Ab): 0.52
  Binding value at 20 μg/ml: 0.20
[2]; first 50 μg/ml column
  Binding value at 50 μg/ml: 0.76
[2]; second 50 μg/ml column
  Binding value at 50 μg/ml: 0.54

## CC(C)C[C@H](NC(=O)[C@H](C)NC(=O)[C@H](CCCNC(=N)N)NC(=O)[C@H](CC(N)=O)NC(=O)[C@H](Cc1c[nH]cn1)NC(=O)[C@H](CO)NC(=O)[C@H](CO)NC(=O)[C@@H](N)CCCCNS(=O)(=O)c1cccc2c(N(C)C)cccc12)C(=O)N[C@@H](CCCNC(=N)N)C(=O)N[C@H](C(=O)N[C@@H](CCCNC(=N)N)C(N)=O)[C@@H](C)O [ZElan078] (H-K(Dansyl)SSHNRALRTR-NH2)
[1]
  Binding value at 50 μg/ml (Jackson Ab): 0.68
[2]
  Binding value at 50 μg/ml (Southern Ab): 0.47
  Binding value at 20 μg/ml: 0.11
[2]; first 50 μg/ml column
  Binding value at 50 μg/ml: 0.87
[2]; second 50 μg/ml column
  Binding value at 50 μg/ml: 0.69

## STPPSREAYSRPYSVDSDSDTNAKHSSHNRRLRTRSRPN [PAX2]
[3]; text summary of HPT1 and hPEPT1 pools
  presence in the systemic circulation (in words): found in the portal and systemic circulation
[3]; text summary of the four pools
  presence in the intestine samples or fractions (in words): not found in the intestine samples
[4]; coated with the named peptide
  Insulin (insulin potency): 60.7 mg/g
[4]; measured by fluorescence
  Peptide (level of peptide coated onto the particles): 3.51 µL/mg

## glutathione S-transferase [GST, reference compound]
[5]
  Value: binding to P100 as a ratio of GST-HAX42 binding: 0.48

## gst-RGSTGTAGGERSGVLNLHTRDNASGSGFKPWYPSNRGHK [GST-5PAX5]
[6]
  binding to fixed Caco-2 or C2BBe1 cells relative to GST control: weak to moderate binding

## gst-RRLRTRSRPN [GST-115]
[5]
  Value: binding to P100 as a ratio of GST-HAX42 binding: 0.36

## gst-SPCGGGSWCRFMQGGLFGGRTDGCGAHRNRTSASLEPPSSDY [GST-SNi34]
[6]
  binding to fixed Caco-2 or C2BBe1 cells relative to GST control: bound

## gst-SRPYSVDSDSDTNAKHSSHNR [GST-105]
[5]
  Value: binding to P100 as a ratio of GST-HAX42 binding: −0.08

## gst-SSHNRRLRTR [GST-114]
[5]
  Value: binding to P100 as a ratio of GST-HAX42 binding: 0.17

## gst-STPPSREAYSRPYSVDSDSD [GST-104]
[5]
  Value: binding to P100 as a ratio of GST-HAX42 binding: 0.01

## gst-TNAKHSSHN [GST-113]
[5]
  Value: binding to P100 as a ratio of GST-HAX42 binding: 0.26

— US7135457B1, “Random peptides that bind to gastro-intestinal tract (GIT) transport receptors and related methods” (Cytogen Corporation, priority 1997, dated 2006)
